Publication PMC11484942, “Rumicidins are a family of mammalian host-defense peptides plugging the 70S ribosome exit tunnel” (Nature Communications, 2024)

Test system: E. coli ATCC 25922
Assay: Systemic septicemia infection mouse model
Type: in vivo, BALB/c mice
Details: 10 mg/kg IP once (1 h post-infection); n = 5
Method: All animal studies were performed at the State Research Center for Applied Microbiology & Biotechnology (SRCAMB) in Obolensk (Russia), approved by the Institutional Bioethics Committee of the SRCAMB (Animal Research Protocol #VP-2022/1) and performed according to the Russian Federal rules and Directive 2010/63/EU of the European Parliament and of the Council. Experiments were performed with female eight- to ten-week-old BALB/c mice (“Andreevka” laboratory animal nursery FMBA, Russia). The animals were housed in groups of 5 in polycarbonate cages, and the following housing conditions were used: 12/12 h dark/light cycle, ambient temperature of 20 ÷ 22 °C, 50% humidity. Food and water were provided ad libitum. In vivo efficacy of rumicidins was tested in the mouse septicemia model induced by E. coli ATCC 25922. Mice were infected with 0.5 mL of bacterial suspension (1 × 10^6 CFU per animal) in saline supplemented with 2.5% mucin (w/v) via intraperitoneal (IP) injection. A total of 4 groups with 5 animals were used. […] The second group received saline (as a vehicle control) and administered IP once (1 h post-infection). Two other groups received rumicidin-1 or rumicidin-3 each administered IP three times (1, 4, and 8 h post-infection) at a dose of 10 mg/kg or of 5 mg/kg, respectively. Survival was monitored for 7 days. After that survived animals were euthanized by CO2 asphyxiation. […]

For `O=C(O)c1cn(C2CC2)c2cc(N3CCNCC3)c(F)cc2c1=O` [Ciprofloxacin], the survival was “survival of all mice”.
